{"source": "paper PMC1192819", "about": "“Molecular cloning and characterization of a nuclear androgen receptor activated by 11-ketotestosterone” (Reproductive biology and endocrinology : RB&E, 2005)", "key": {"[1]": {"biological_target": "AR in stickleback kidney cytosolic fraction", "assay": "Saturation and Scatchard analysis, kidney cytosolic fraction", "format": "binding, three-spined stickleback (Gasterosteus aculeatus)", "settings": "overnight 4°C", "protocol": "Aliquots (250 μl) of the nuclear or cytosolic preparations were added to each tube, the tubes were vortexed and incubated over night at 4°C. To stop the binding reaction, 250 μl DCC was added to each tube. The tubes were vortexed and the suspensions were incubated for 5 min at 4°C, before spinning at 3,000 × g at 4°C for 5 min. The supernatants were decanted into 7 ml scintillation vials, 5 ml of standard scintillation cocktail was added and the radioactivity in each sample was measured in a liquid scintillation counter (Beckman LS 6000SC, Beckman Instruments, Fullerton, CA). The procedure used for the expressed recombinant ARβ2 was modified as follows. […] The expressed proteins were diluted 1:100 and aliquots (100 μl) were added to each reaction tube. The tubes were vortexed and incubated over night at 4°C. To stop the binding reaction, 200 μl DCC was added to each tube. The tubes were vortexed and the suspension were incubated for 5 min at 4°C, before spinning at 3,000 × g at 4°C for 5 min. 250 μl of the supernatant was transferred into 5 ml scintillation vials and 4 ml of standard scintillation cocktail was added before the radioactivity in each sample was measured in a liquid scintillation counter (Wallac 1409, Wallac Oy, Turku, Finland)."}, "[2]": {"biological_target": "recombinant stickleback ARβ2 (Gasterosteus aculeatus, UniProt Q801Z2)", "sequence (Q801Z2 1-735)": "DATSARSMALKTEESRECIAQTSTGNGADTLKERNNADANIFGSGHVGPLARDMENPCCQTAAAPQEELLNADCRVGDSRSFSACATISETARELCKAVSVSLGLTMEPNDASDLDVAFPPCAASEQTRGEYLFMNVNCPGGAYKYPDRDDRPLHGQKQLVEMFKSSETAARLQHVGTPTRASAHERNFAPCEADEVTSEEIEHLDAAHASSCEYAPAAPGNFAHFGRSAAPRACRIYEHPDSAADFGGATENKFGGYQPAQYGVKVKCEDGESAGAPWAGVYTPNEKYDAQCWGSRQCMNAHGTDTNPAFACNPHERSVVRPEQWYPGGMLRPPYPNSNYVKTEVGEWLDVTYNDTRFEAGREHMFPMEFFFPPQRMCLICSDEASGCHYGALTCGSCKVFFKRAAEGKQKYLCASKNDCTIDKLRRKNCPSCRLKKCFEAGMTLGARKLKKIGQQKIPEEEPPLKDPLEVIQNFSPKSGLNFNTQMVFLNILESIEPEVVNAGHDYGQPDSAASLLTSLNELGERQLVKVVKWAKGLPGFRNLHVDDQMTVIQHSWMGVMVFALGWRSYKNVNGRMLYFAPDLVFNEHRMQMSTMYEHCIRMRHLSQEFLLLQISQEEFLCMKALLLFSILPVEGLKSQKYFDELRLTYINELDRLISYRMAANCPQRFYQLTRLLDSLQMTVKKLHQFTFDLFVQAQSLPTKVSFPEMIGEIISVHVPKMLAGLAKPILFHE", "settings": "recombinant ARβ2, reticulocyte extract", "protocol": "The excised AR pBK CMV clones were digested with XbaI and EcoRI and the inserts were gel purified prior to ligation into the pCMV-TNT vector (Promega) between XbaI and EcoRI. […] AR was expressed by introducing the pCMV-TNT into the TNT coupled reticulocyte lysate system (Promega) according to the manufacturer's instructions. The size of the expressed products was determined by addition of S^35-methionin to the reticulocyte lysate system. The obtained protein suspension was analyzed on a denaturing 8% SDS PAGE and the sizes were determined using prestained SDS-PAGE broad range protein molecular weight standard (Bio-Rad) and a control luciferase protein of 62 kDa included in the reticulocyte lysate system (Promega). […]\nAliquots (250 μl) of the nuclear or cytosolic preparations were added to each tube, the tubes were vortexed and incubated over night at 4°C. […] The supernatants were decanted into 7 ml scintillation vials, 5 ml of standard scintillation cocktail was added and the radioactivity in each sample was measured in a liquid scintillation counter (Beckman LS 6000SC, Beckman Instruments, Fullerton, CA). […] 250 μl of the supernatant was transferred into 5 ml scintillation vials and 4 ml of standard scintillation cocktail was added before the radioactivity in each sample was measured in a liquid scintillation counter (Wallac 1409, Wallac Oy, Turku, Finland)."}, "[3]": {"test_system": "AR in three-spined stickleback kidney cytosolic extracts", "settings": "4°C", "protocol": "The reaction was terminated at different time-points ranging between 1 min and 24 h. The specific binding at each time-point was determined as described above."}}}
{"molecule": "C[C@]12CCC(=O)C[C@@H]1CC[C@@H]1[C@@H]2CC[C@]2(C)[C@@H](O)CC[C@@H]12", "note": "[[^3H]-DHT]", "values": [{"measurement": "Kd", "setting": "[1]", "value": "18.7 ± 3.21", "unit": "nM"}, {"measurement": "Bmax", "setting": "[2]", "value": "0.324 ± 0.04", "unit": "pmol/mg protein"}, {"measurement": "association t1/2", "setting": "[3]; 4 nM tracer", "value": 3.3, "unit": "min"}, {"measurement": "time to reach binding equilibrium", "setting": "[3]; 4 nM tracer", "value": 20, "unit": "min"}, {"measurement": "dissociation t1/2", "setting": "[3]; 100-fold excess unlabelled DHT", "value": 80, "unit": "min"}, {"measurement": "time to complete dissociation", "setting": "[3]; 100-fold excess unlabelled DHT", "value": "≤ 8", "unit": "h"}]}
